Test results taken from publication PMC5797143, “Epigenetic modulation of inflammation and synaptic plasticity promotes resilience against stress in mice” (Nature Communications, 2018).
Like-named read-outs stand apart in the source and are kept apart here.

Tests used:
CYP2D6 = molecular target: T1, CYP2D6 (Homo sapiens, UniProt P10635); assay: CYP inhibition in human liver microsomes; type: in vitro ADME; details: read-out: CPY450 inhibition (IC50), CYP2D6
T1 construct: from tissue; host or cells: human liver microsomes
Method: (§1) CYP inhibition was tested in isolated microsomes for CYP2D6, CYP3A4, CYP1A2, CYP2C9, CYP2C19, CYP2C8, and CYP2B6[66]. Briefly, increasing concentrations of Mal-gluc or DHCA were incubated with human liver microsomes (HLM) in the presence of 2 mM NADPH in 100 mM potassium phosphate (pH 7.4) containing 5 mM magnesium chloride and a specific probe substrate for different CYPs: tacrine (CYP1A2), amodiaquine (CYP2C8), tolbutamide (CYP2C9), S-mephenytoin (CYP2C19), dextromethorphan (CYP2D6), midazolam/testosterone (CYP3A4/5), or bupropion (CYP2B6). CYP-specific inhibitors were included alongside the test compound as a positive control, including α-naphthoflavone (CYP1A2), quercetin (CYP2C8), ketoconazole (CYP3A4/5), quinidine (CYP2D6), sulfaphenazole (CYP2C9), and ticlopidine (CYP2C19, CYP2B6). After incubation at 37 °C, the reactions were terminated by addition of a methanol-containing internal standard (propranolol) for analytical quantification. The quenched samples were then incubated at 4 °C for 10 min and centrifuged at 4 °C for 10 min. The supernatant was removed and the probe substrate metabolite was analyzed by LC-MS/MS (Agilent Technologies Triple Quad LC-MS/MS).

CYP3A4 = CYP3A4 (Homo sapiens, UniProt P08684); assay: CYP inhibition in human liver microsomes; type: in vitro ADME; details: read-out: CPY450 inhibition (IC50), CYP3A4
Method: as §1

CYP2C9 = molecular target: T2, CYP2C9 (Homo sapiens, UniProt P11712); assay: CYP inhibition in human liver microsomes; type: in vitro ADME; details: read-out: CPY450 inhibition (IC50), CYP2C9
T2 construct: from tissue; host or cells: human liver microsomes
Method: as §1

CYP1A2 = molecular target: T3, CYP1A2 (Homo sapiens, UniProt P05177); assay: CYP inhibition in human liver microsomes; type: in vitro ADME; details: read-out: CPY450 inhibition (IC50), CYP1A2
T3 construct: from tissue; host or cells: human liver microsomes
Method: as §1

CYP2C8 = molecular target: T4, CYP2C8 (Homo sapiens, UniProt P10632); assay: CYP inhibition in human liver microsomes; type: in vitro ADME; details: read-out: CPY450 inhibition (IC50), CYP2C8
T4 construct: from tissue; host or cells: human liver microsomes
Method: as §1

CYP2C19 = molecular target: T5, CYP2C19 (Homo sapiens, UniProt P33261); assay: CYP inhibition in human liver microsomes; type: in vitro ADME; details: read-out: CPY450 inhibition (IC50), CYP2C19
T5 construct: from tissue; host or cells: human liver microsomes
Method: as §1

CYP2B6 = molecular target: T6, CYP2B6 (Homo sapiens, UniProt P20813); assay: CYP inhibition in human liver microsomes; type: in vitro ADME; details: read-out: CPY450 inhibition (IC50), CYP2B6
T6 construct: from tissue; host or cells: human liver microsomes
Method: as §1

[1] = test system: C57BL/6 mice subjected to RSDS; assay: RSDS, prophylactic treatment; type: in vivo, mouse; details: 5 mg/kg-BW/day DHCA or 500 ng/kg-BW/day Mal-gluc alone prior to RSDS
Method: To test the efficacy of BDPP in promoting resilience in stress-mediated depression, we treated C57BL/6 male mice with BDPP or vehicle for 2 weeks prior to and throughout RSDS and then performed social avoidance/interaction (SI) testing (Fig. 1a).
Based on the dose–response studies, we chose 5 mg/kg-BW/day DHCA and 500 ng/kg-BW/day Mal-gluc for the preclinical studies. We tested the prophylactic effect by treating mice with a mixture of DHCA/Mal-gluc for 2 weeks prior to and throughout RSDS (Fig. 3c). […] Following SI testing, mice were subjected to a sucrose preference test to evaluate the treatment effect on stress-induced anhedonia.
Male C57BL/6 mice (8-week-old) were randomly grouped into two groups: one group received regular drinking water; the other group was treated with BDPP composed of GSPE, RESV and CGJ, delivered through their drinking water, starting 2 weeks prior to RSDS and throughout RSDS and SI testing. The calculated daily intake of GSPE was 200 mg/kg body weight (BW), RESV was 300 mg/kg BW and CGJ was 1 ml/day.
To facilitate the follow-up sucrose preference test, the delivery of the drinking solution was through two 50-ml tubes with sipper top for each cage, starting from the day of initiation of treatment and the two tubes were regularly switched during the treatment. In parallel control studies, mice received similar treatment but were not subjected to RSDS. For therapeutic studies, susceptible mice (SI <0.8) were identified and randomly grouped into two groups either treated with vehicle or DHCA/Mal-gluc for 2 weeks. Mice were subjected to SI, sucrose preference, and splash testing. For testing the therapeutic efficacy of Imipramine, susceptible mice were treated with Imipramine (20 mg/kg-BW/day, i.p.) for 34 days. On day 35, mice were tested for SI 15–20 min after the last injection. […]
All social interaction (SI) tests were performed under red-light conditions. […] Their movements were automatically monitored and recorded (Ethovision 3.0; Noldus Information Technology) for 2.5 min in the absence (target absent phase) of a novel CD-1 mouse and followed by 2.5 min exploratory behavior in the presence of a caged CD-1 mouse (target present phase). SI behavior was then calculated as a ratio of the time spent in the interaction zone with the target present divided by the time spent in the interaction zone with the target absent. […]
Mice were given access to a two-bottle choice of water or 1% sucrose solution and the consumption of each solution was recorded once every 24 h for 48 or 72 h. […] Sucrose preference was calculated as a percentage of sucrose consumption over total liquid consumption. […]

T5 sequence (P33261 whole entry): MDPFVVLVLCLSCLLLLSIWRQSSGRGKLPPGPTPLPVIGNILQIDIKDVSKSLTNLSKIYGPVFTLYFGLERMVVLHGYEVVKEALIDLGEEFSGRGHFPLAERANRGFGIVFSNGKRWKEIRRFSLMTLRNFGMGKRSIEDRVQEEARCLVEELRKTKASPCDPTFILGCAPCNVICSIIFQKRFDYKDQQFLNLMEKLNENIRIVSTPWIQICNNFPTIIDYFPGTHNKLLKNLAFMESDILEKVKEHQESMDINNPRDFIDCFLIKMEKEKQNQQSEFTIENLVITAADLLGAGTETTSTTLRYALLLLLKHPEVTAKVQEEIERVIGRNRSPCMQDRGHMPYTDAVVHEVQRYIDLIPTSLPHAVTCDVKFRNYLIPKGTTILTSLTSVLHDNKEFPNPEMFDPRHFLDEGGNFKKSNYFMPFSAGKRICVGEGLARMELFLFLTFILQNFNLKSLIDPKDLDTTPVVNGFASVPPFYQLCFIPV
T3 sequence (P05177 whole entry): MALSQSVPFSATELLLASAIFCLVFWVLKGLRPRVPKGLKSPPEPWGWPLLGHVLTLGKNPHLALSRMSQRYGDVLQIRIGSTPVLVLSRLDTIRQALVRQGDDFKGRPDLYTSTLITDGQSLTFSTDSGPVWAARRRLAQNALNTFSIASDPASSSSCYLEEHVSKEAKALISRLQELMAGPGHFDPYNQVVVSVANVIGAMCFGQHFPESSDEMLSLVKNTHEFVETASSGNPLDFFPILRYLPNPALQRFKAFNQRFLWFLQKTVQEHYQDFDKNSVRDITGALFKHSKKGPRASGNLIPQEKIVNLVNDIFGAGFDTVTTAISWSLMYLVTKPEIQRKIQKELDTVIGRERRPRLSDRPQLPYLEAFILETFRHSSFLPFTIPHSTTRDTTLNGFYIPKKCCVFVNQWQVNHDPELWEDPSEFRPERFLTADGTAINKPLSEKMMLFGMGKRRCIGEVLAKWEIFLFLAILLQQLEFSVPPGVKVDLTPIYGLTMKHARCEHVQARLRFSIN
T4 sequence (P10632 whole entry): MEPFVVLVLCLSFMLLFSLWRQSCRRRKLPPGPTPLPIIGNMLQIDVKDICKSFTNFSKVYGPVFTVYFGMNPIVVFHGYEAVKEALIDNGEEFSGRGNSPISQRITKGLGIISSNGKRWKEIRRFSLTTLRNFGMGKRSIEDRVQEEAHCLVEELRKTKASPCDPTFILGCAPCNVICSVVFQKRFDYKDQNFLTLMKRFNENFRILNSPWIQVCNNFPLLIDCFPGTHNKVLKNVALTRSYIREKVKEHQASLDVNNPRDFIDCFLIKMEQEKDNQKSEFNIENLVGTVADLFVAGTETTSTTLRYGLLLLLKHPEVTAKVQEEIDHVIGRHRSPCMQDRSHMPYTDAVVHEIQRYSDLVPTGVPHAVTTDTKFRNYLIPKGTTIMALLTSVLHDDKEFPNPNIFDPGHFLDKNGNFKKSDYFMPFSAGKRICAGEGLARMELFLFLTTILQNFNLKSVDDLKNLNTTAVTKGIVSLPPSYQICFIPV
Chain of CYP3A4 (P08684 2-503): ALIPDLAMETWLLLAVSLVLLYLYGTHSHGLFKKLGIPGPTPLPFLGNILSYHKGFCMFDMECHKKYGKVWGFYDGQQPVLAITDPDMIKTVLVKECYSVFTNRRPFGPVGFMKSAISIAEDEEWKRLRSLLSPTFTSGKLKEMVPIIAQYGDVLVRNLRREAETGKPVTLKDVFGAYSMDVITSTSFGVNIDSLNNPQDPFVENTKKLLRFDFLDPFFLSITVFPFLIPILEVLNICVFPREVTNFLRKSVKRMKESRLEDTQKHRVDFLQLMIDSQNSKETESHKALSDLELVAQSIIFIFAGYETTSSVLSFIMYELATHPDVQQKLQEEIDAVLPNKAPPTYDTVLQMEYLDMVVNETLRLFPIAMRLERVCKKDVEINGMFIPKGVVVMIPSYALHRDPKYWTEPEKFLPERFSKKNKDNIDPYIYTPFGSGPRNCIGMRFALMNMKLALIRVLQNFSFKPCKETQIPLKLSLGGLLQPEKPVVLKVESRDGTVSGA
T2 sequence (P11712 whole entry): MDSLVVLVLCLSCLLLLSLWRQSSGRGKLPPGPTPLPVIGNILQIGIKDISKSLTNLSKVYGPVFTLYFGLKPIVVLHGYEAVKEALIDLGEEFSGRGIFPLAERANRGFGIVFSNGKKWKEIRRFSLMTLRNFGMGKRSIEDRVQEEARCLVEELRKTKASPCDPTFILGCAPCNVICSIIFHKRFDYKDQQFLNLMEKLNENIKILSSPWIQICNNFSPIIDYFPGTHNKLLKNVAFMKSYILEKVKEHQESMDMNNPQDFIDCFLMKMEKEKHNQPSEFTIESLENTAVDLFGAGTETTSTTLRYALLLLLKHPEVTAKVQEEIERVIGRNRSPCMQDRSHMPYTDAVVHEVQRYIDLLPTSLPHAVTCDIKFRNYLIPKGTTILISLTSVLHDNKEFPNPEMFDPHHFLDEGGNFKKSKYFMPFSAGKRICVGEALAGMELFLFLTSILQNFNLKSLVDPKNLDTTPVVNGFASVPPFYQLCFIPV
T1 sequence (P10635 whole entry): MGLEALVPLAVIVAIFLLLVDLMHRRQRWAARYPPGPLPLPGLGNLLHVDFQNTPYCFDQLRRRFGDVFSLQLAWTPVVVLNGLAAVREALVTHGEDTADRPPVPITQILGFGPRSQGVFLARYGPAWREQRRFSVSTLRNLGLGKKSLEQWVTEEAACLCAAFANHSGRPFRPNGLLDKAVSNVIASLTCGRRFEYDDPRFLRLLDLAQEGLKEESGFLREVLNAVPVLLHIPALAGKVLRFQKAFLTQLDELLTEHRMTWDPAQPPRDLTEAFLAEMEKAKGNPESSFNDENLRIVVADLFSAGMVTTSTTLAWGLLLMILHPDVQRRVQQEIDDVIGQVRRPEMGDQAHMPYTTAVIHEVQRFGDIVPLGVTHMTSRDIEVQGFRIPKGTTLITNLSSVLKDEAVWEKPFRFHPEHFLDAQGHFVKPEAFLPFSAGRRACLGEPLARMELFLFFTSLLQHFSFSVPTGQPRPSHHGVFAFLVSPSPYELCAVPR
T6 sequence (P20813 whole entry): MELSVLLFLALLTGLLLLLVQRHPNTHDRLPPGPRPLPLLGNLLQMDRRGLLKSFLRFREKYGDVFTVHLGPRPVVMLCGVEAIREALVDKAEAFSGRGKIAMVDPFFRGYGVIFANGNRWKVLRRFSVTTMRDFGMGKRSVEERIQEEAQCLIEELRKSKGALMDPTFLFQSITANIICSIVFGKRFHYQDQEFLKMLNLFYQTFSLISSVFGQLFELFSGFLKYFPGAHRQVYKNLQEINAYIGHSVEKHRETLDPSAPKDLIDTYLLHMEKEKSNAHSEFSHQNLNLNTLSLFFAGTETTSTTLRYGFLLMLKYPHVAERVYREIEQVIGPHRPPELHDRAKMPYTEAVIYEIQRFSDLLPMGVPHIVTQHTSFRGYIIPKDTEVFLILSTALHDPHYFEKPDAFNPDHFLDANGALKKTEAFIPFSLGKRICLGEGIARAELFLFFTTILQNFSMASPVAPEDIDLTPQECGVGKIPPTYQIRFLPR

Compound | IC50 (CYP2D6) [µM] | IC50 (CYP3A4; human, pH 7.4, probe midazolam/testosterone) [µM] | IC50 (CYP2C9) [µM] | IC50 (CYP1A2) [µM] | IC50 (CYP2C8) [µM] | IC50 (CYP2C19) [µM] | IC50 (CYP2B6) [µM] | anhedonia (sucrose preference), single compound treatment [1] | resilience (SI), single compound treatment [1] | IC50 (CYP3A4) [µM]
O=C(O)CCc1ccc(O)c(O)c1 [DHCA, 3(3,4-dihydroxy-phenyl) propionic acid] | > 25 | > 25 | > 25 | > 25 | > 25 | > 25 | > 25 | neither treatment significantly promoted resilience (Supplementary Fig. 7a) or alleviate anhedonia | neither treatment significantly promoted resilience | –
COc1cc(-c2[o+]c3cc(O)cc(O)c3cc2O[C@@H]2O[C@H](CO)[C@@H](O)[C@H](O)[C@H]2O)cc(OC)c1O [Mal-gluc] | > 25 | – | > 25 | > 25 | > 25 | > 25 | > 25 | neither treatment significantly promoted resilience (Supplementary Fig. 7a) or alleviate anhedonia | neither treatment significantly promoted resilience | > 25
